Experimental data as given in patent publication US20250186418A1, “COMPOSITIONS CONTAINING NICOTINAMIDE AND VITAMIN B6 AND METHODS OF USING SUCH COMPOSITIONS FOR REHABILITATION” (SOCIETE DES PRODUITS NESTLE S.A., priority 2020, published 2025).

System: Human primary myoblasts
Assay: Myogenic amplification and commitment of muscle stem cells (Pax7/MyoD staining of human primary myoblasts)
Format: cell-based
Settings: donors 1 and 2 pooled, normalized to total cell number, control DMSO 1%, 96 hours; for proportion of MyoD+ cells, fold change compared to the control condition: FIG. 1B/2B
Description: Human Skeletal Muscle Myoblasts were purchased from Lonza (https://bioscience.lonza.com). These cells were isolated from the upper arm or leg muscle tissue of normal donors and used after the second passage. Several donors were tested to ensure cell viability and purity before selecting the final donors, which are a person (refer thereafter as Donor 1), a person (refer thereafter as Donor 2) and a person (refer thereafter as Donor 3). Human primary myoblasts were seeded in 384 well plates at a density of 1'000 cells per well in skeletal muscle growth medium (SKM-M, AMSbio). For treatment, compounds were directly added to the myoblast cultures 16 hours after initial plating. All cultures were then grown for 96 hours. Cells were stained for Pax7 and MyoD expression using antibodies directed against Pax7 and MyoD and counterstained with Hoechst 33342 to visualize cell nuclei. Pax7+ cells are defined as cells that express Pax7 regardless of MyoD expression. […] Image acquisition was performed using the ImageXpress (Molecular Devices) platform. Custom module analysis based on Multi-Wavelength Cell Scoring of the MetaXpress software was used for quantification. *, **, ***, **** indicates difference from the control, One-way ANOVA, with p<0.05, p<0.01, p<0.001, p<0.0001, respectively. Data are presented as Mean+/−SEM Human primary myoblasts from different donors (donor 1, donor 2 or donor 3) were seeded in 384 well plates at a density of 1′000 cells per well in skeletal muscle growth medium (SKM-M, AMSbio). For treatment, compounds were directly added to the myoblast cultures 16 hours after initial plating. All cultures were then grown for 96 hours. Cells were stained for Pax7 and MyoD expression using antibodies directed against Pax7 and MyoD and counterstained with Hoechst 33342 to visualize cell nuclei. Pax7+ cells are defined as cells that express Pax7 regardless of MyoD expression. […] Image acquisition was performed using the ImageXpress (Molecular Devices) platform. Custom module analysis based on Multi-Wavelength Cell Scoring of the MetaXpress software was used for quantification. […]

NC(=O)c1cccnc1 [Nicotinamide]
proportion of Pax7+ cells, fold change compared to the control condition (FIG. 1A/2A): increasing the proportion of both amplifying (Pax7+) and differentiating (MyoD+) cells in a dose dependent manner | proportion of MyoD+ cells, fold change compared to the control condition: increasing the proportion of both amplifying (Pax7+) and differentiating (MyoD+) cells in a dose dependent manner

Cc1ncc(CO)c(CO)c1O [Pyridoxine]
proportion of MyoD+ cells, fold change compared to the control condition: increasing the proportion of differentiating (MyoD+) cells in a dose dependent manner
